Source: patent US20180116993A1, “MODULATORS OF FARNESOID X RECEPTOR AND METHODS FOR THE USE THEREOF” (XIAMEN UNIVERSITY, priority 2015, published 2018)
Like-named read-outs stand apart in the source and are kept apart here. Marks after values point to notes of the source that are not given here.

Tests used:
[1] = biological target: T1, FXR ligand binding domain (LBD) (Homo sapiens, UniProt Q96RI1); test: AlphaScreen assay: FXR LBD recruitment of coregulator peptide motifs (SRC2-3, SRC1-2); type: biochemical; conditions: Table 2
T1 construct: made in house
T1 sequence (Q96RI1 262-486 limits assumed): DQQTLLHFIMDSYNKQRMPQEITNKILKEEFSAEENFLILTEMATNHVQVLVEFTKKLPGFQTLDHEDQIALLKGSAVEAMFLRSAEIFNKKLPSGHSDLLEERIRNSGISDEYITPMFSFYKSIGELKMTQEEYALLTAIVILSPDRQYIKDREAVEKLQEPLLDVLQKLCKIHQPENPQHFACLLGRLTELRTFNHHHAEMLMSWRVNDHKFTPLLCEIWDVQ
Protocol: In search of novel ligands for FXR, we used FXR ligand binding domain (LBD) as a bait to screen chemical libraries based on AlphaScreen biochemical assay, which determines the efficacy of small molecules in influencing binding affinity of FXR with coregulator peptides (see e.g., Jin et al., (2013) Nature communications 4, 1937).
The binding of the cofactor peptide motifs to FXR ligand binding domain (LBD) in response to ligands was determined by AlphaScreen assays using a hexahistidine detection kit from Perkins-Elmer. The FXR LBD protein was purified as described previously (see e.g., Jin et al., (2013) Nature communications 4, 1937). The experiments were conducted with approximately 20-40 nM receptor LBD and 20 nM biotinylated cofactor peptides in the presence of 5 μg/ml donor and acceptor beads in a buffer containing 50 mM MOPS, 50 mM NaF, 0.05 mM CHAPS, and 0.1 mg/ml bovine serum albumin, all adjusted to a pH of 7.4.

full-length FXR = biological target: T2, full-length FXR (Homo sapiens, UniProt Q96RI1); test: Cell-based FXR transactivation, EcRE luciferase reporter in COS-7 cells; conditions: Table 2
T2 construct: The cells were co-transfected with plasmids encoding full-length FXR and the cognate luciferase reporter EcRE-Luc; expressed in transfected cells; host or cells: COS-7
T2 sequence (Q96RI1 1-486): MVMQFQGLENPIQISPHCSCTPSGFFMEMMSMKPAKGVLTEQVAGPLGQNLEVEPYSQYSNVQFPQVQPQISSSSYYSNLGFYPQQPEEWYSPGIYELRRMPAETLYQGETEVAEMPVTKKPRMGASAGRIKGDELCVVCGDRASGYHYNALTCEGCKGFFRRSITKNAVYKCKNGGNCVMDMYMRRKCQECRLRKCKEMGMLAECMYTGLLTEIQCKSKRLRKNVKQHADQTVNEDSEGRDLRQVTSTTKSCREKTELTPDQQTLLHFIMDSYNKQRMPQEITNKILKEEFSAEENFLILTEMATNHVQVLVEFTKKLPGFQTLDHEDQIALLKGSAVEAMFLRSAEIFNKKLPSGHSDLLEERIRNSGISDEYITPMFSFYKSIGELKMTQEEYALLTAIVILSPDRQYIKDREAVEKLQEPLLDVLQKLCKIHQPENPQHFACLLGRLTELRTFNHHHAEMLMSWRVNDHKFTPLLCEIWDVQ
Protocol: COS-7 cells were cotransfected with plasmids encoding full length FXR.
For transient transfection assay, COS-7 cells were maintained in DMEM containing 10% fetal bovine serum and were transiently transfected using Lipofectamine 2000 (Invitrogen). Before 24 h of transfection, 24-well plates were plated. The cells were co-transfected with plasmids encoding full-length FXR and the cognate luciferase reporter EcRE-Luc. Ligands were added 5 hours after transfection. Cells were harvested 24 hours later for the luciferase assays according to the manufacturer's instructions (Dual-Luciferase® Reporter Assay System, Promega). Luciferase activities were normalized to renilla activity co-transfected as an internal control.

[2] = tested on: human colorectal adenocarcinoma HCT15 cells; test: MTT cell viability assay, HCT15; type: cell-based; conditions: 48 h, read-out: Cell viability as a percentage of the cells treated with DMSO, HCT15
Description: (§1) The MTT assay is a colorimetric assay for assessing cell metabolic activity. It is widely used in high-throughput screening of antitumor drugs due to its high sensitivity and economical features. In this example, MTT was used to detect the inhibitory effects of compounds on various cancer cell lines. Cancer cells including human colorectal adenocarcinoma HCT15 cells, RA-resistant human colon cancer HCT116 cells, human cervical carcinoma Hela cells, human hepatoma HepG2 cells and human breast cancer MCF7 cells were cultured in DMEM medium containing 10% fetal bovine serum. 20 uM or 40 uM of compounds were administered to treat cells, cell viability is detected by MTT assay and expressed as a percentage of the cells treated with DMSO (Table 4).

[3] = tested on: RA-resistant human colon cancer HCT116 cells; test: MTT cell viability assay, HCT116; type: cell-based; conditions: 48 h, read-out: Cell viability as a percentage of the cells treated with DMSO, HCT116
Description: as §1

[4] = tested on: human hepatoma HepG2 cells; test: MTT cell viability assay, HepG2; type: cell-based; conditions: 48 h, read-out: Cell viability as a percentage of the cells treated with DMSO, HepG2
Description: as §1

[5] = tested on: human cervical carcinoma Hela cells; test: MTT cell viability assay, Hela; type: cell-based; conditions: 48 h, read-out: Cell viability as a percentage of the cells treated with DMSO, Hela
Description: as §1

[6] = tested on: human breast cancer MCF7 cells; test: MTT cell viability assay, MCF-7; type: cell-based; conditions: 48 h, read-out: Cell viability as a percentage of the cells treated with DMSO, MCF-7
Description: as §1

db/db mice = test: Hepatic triglyceride, liver histology, serum ALT and ALP in high-fat diet fed db/db mice; type: in vivo, mouse; conditions: 10 mg/kg once daily for 10 days
Protocol: Liver tissues fixed in 4% paraformaldehyde in example 5 were performed for H&E staining by standard procedures. Liver tissues fixed in 4% paraformaldehyde were embedded in optimum cutting temperature compound (OCT), and cryosectioned. Frozen liver sections were stained with 0.3% oil red O according to standard procedures.
The triglyceride levels in liver tissues from mice treated with compounds were analyzed using Tissue triglyceride assay kit (Applygen, Beijing, China).
Alkaline Phosphatase (ALP) is a marker of cholestasis. Cholestasis can be suspected when there is an elevation of ALP enzymes. In fact, greater than 90% of patients with bile stasis will have an elevated alkaline phosphatase. […] The aminotransferase is used to evaluate the presence of hepatitis and may be elevated in cholestasis or with common bile duct obstruction. In this example, 8-10 week age db/db mice were fed with high-fat diet and treated with 10 mg/kg of compounds once daily for 10 days as in Example 5. The activities of serum ALP and ALT were analyzed using ALP kit and ALT kit, respectively (Nanjing Jiancheng Engineering Institute, China).

[7] = tested on: inflammatory cytokines in tissues of db/db mice; test: Inflammatory cytokine mRNA levels in tissues of high-fat diet fed db/db mice (RT-PCR); type: in vivo, mouse; conditions: 5 mg/kg
Description: In this example, we detected the levels of various inflammatory cytokines including iNOS, IFNγ, TGFβ, TNFα, COX2, IL-1β, IL-6, SAA1, MIP-1α and CD36 in liver, kidney, white adipose tissue (WAT) in various mice models, including wild type mice treated with APAP in example 4, high-fat diet fed diabetic and obesity db/db and KK-Ay mice in example 5, high-fat diet fed wild-type mice in Example 5, as well as in primary hepatocytes with LPS induced inflammation, using RT-PCR.

EC50 ([1]; SRC1-2 peptide, read-out: EC50 (μM) of FXR binding by AlphaScreen assay recruit SRC1-2): < 1 µM
EC50 ([1]; SRC2-3 peptide, read-out: EC50 (μM) of FXR binding by AlphaScreen assay recruit SRC2-3): < 1 µM
Cell-based FXR transactivation Fold changes by 5 μM compound (full-length FXR; 5 μM compound, positive: induction, minus: repression): −5
EC50 (full-length FXR; EcRE luciferase reporter): < 1 µM
SMILES: COc1cc(C(=O)OC2CCC3CCCCC3C2)ccc1N (stereo not drawn) [XD-32, decahydro-naphthalen-2-yl 4-amino-3-methoxybenzoate]
viability at 20 µM ([2]; HCT-15, 20 uM): 80 ± 7%
viability at 40 µM ([2]; HCT-15, 40 uM): 35 ± 7%
viability at 20 µM ([3]; HCT-116, 20 uM): 65 ± 7%
viability at 40 µM ([3]; HCT-116, 40 uM): 53 ± 7%
viability at 20 µM ([4]; 20 uM): 100 ± 7%
viability at 40 µM ([4]; 40 uM): 74 ± 7%
viability at 20 µM ([5]; 20 uM): 73%
viability at 40 µM ([5]; 40 uM): 30 ± 7%
viability at 20 µM ([6]; 20 uM): 100 ± 7%
viability at 40 µM ([6]; 40 uM): 95 ± 7%
Serum ALP (U/L) (db/db mice; vehicle 129 ± 15): 83 ± 23^a U/L
Serum ALT (U/L) (db/db mice; vehicle 377 ± 48, Table 17): 110 ± 42^a U/L
mRNA level of iNOS (fold), Liver tissue ([7]; vehicle 1.06 ± 0.14): 0.22 ± 0.12^a fold
mRNA level of iNOS (fold), Colon tissue ([7]; vehicle 1.12 ± 0.23): 0.45 ± 0.13^a fold
